{"source": "patent US9527894B2", "about": "“Polymutant tau protein variants and their use for recapitulating human tauopathies” (Universitaet Leipzig, priority 2011, dated 2016)", "key": {"[1]": {"system": "MC1-positive (abnormal conformation) tau in SH-SY5Y cell lines", "assay": "Western blot detection of abnormal tau conformation with MC1 antibody", "type": "cell-based, human", "conditions": "undifferentiated neuroblastoma cell lines", "excerpt": "FIG. 2: Abnormal tau conformation in polymutant tau cell lines. Poly-mutant tau variants were developed and, using those variants, poly-mutant neuroblastoma cell lines were produced. In those cell lines tau adopting an abnormal/pathological conformation under physiological conditions was observed (MC1 abnormal tau). […] Corroborating recent results that phosphorylation may stabilize abnormal conformation the amount of MC1-positive tau species could be decreased by treating the cells with a tau kinase inhibitor (SRN-003-556). […]\nCells were harvested and protease as well as phosphatase inhibitor cocktail (Sigma-Aldrich) was added. Proteins were extracted by sonification (Hielscher GmbH) and protein concentration was determined using the Roti-Nanoquant Assay (Carl-Roth GmbH). Laemmli sample buffer was added to 60 μg cell lysate. Samples were separated on 10% SDS-polyacrylamide gel and electro transferred onto polyvinylidene fluoride membranes and subsequently immunolabeled with anti-MC1 specific antibody (Peter Davis Department of Pathology, Albert Einstein College of Medicine, 1:100) at 4° C. over night. Secondary antibody was horseradish peroxidase conjugated (Dianova, 1:5000). Specific protein signals were detected using Chemiluminescence Detection Kit (MobiTec) and ChemiDoc-XRS (BioRad). […]"}, "SH-SY5Y cells": {"system": "SH-SY5Y cells", "assay": "impedimetric monitoring of differentiated wildtype and poly-mutant tau expressing cells", "type": "cell-based, human", "conditions": "differentiated 48 h with 20 nM staurosporine, then monitored 24 h; compared to wildtype tau cells", "method": "FIG. 5: Differentiation induces neurodegeneration in poly-mutant tau expressing SH-SY5Y cells. Differentiation of SH-SY5Y cells were induced by 48 h incubation with 20 nM staurosporine. Afterwards the cells were impedimetrically monitored for 24 h. […] (n=4, 2D-ANOVA, Bonferoni post-hoc test, *p<0.05, **p<0.01)\n(§1) Human neuroblastoma SH-SY5Y cells were grown in DMEM medium, supplemented with 15% fetal bovine serum (FBS), non-essential amino acids, glutamax and penicillin/streptomycine (Invitrogen). Differentiation of SH-SY5Y cells was induced by incubation of the SH-SY5Y cells with 20 nM stauropsprin (Sigma-Aldrich) for 48 hours. For the appropriate experiments differentiated cells were treated with okadaic acid (Sigma-Aldrich) in a concentration of 25 nM or in case of reference compound testing with SRN-003-556 and AR-A014418, respectively.\nCells were cultured on self-developed 96-well arrays comprising a gold electrode at the culture surface. The SH-SY5Y cells were differentiated for 48 hours on the 96-well arrays. Impedance spectra were recorded with a self developed multiplexer unit for the 96-well arrays and an impedance Analyser Agilent 4294A (Agilent Technologies) with an alternating voltage of 10 mV with frequencies from 500 Hz to 5 MHz (0 mV bias between electrodes). For each experiment at least five wells were measured in replicate. All impedance magnitude spectra were analysed with a self-developed software IDAT (Impedance Data Analysing Tool). IDAT calculates the impedance of cell-covered electrodes relative to electrodes without cells (relative impedance: (|Z|covered-|Z|cell-free)/|Z|cell-free×100%) and determine the and select the frequency where impedance change caused by the cell layer is maximum (for SH-SY5Y cells on 96-well array at about 100 kHz). […] Experiments were repeated at least three times. […]"}, "[2]": {"system": "SH-SY5Y neuroblastoma cell lines", "assay": "formation of abnormal tau aggregates after differentiation (EGFP-tau imaging)", "type": "cell-based, human", "conditions": "after induction of differentiation (20 nM staurosporine), without toxic cofactors", "method": "FIG. 1: Abnormal tau aggregation in a hyper-mutated tau expressing cell line.\nas §1"}, "[3]": {"system": "tau mutant expressing SH-SY5Y cells", "assay": "impedimetric detection of okadaic acid induced artificial hyperphosphorylation", "type": "cell-based, human", "conditions": "25 nM", "method": "FIG. 4: Impedimetric detection of consequences by okadaic acid induced artificial hyperphosphorylation. […] (n=3, 2D-ANOVA, Bonferoni post-hoc test, *p<0.05, **p<0.01, ***p<0.001)\nas §1\n(§2) Cells were cultured on self-developed 96-well arrays comprising a gold electrode at the culture surface. The SH-SY5Y cells were differentiated for 48 hours on the 96-well arrays. Impedance spectra were recorded with a self developed multiplexer unit for the 96-well arrays and an impedance Analyser Agilent 4294A (Agilent Technologies) with an alternating voltage of 10 mV with frequencies from 500 Hz to 5 MHz (0 mV bias between electrodes). For each experiment at least five wells were measured in replicate. All impedance magnitude spectra were analysed with a self-developed software IDAT (Impedance Data Analysing Tool). […]"}, "[4]": {"system": "Hyper-tau expressing SH-SY5Y cells", "assay": "impedance spectroscopy based functional tau pathology in vitro screening assay (Hyper-tau cells)", "type": "cell-based, human", "method": "FIG. 6: Use of Hyper-tau cells for quantitative detection of compound efficiency. Taking the developed Hyper-tau cells, where pathology was induced by differentiation (20 nM staurosporine for 48 h) in comparison to the wildtype tau expressing cells (physiological condition) the efficiency of potential active pharmaceutical ingredients could be quantified.\nHuman neuroblastoma SH-SY5Y cells were grown in DMEM medium, supplemented with 15% fetal bovine serum (FBS), non-essential amino acids, glutamax and penicillin/streptomycine (Invitrogen). Differentiation of SH-SY5Y cells was induced by incubation of the SH-SY5Y cells with 20 nM stauropsprin (Sigma-Aldrich) for 48 hours. […]\nas §2, with “The SH-SY5Y cells were differentiated for 48 hours on the 96-well arrays.” left out"}, "tau hyperphosphorylation": {"system": "tau hyperphosphorylation", "conditions": "artificial hyperphosphorylation using toxic compounds like okadaic acid; cited from earlier work"}, "tauopathy mouse model": {"system": "tauopathy mouse model", "conditions": "LeCorre et al. 2006, Selenica et al. 2007; cited from earlier work"}}}
{"molecule": "Hyper-tau: 5× polymutant tauK257T/ΔK280/P301L/V337M/R406W, SEQ ID NO:3", "values": [{"measurement": "MC1-detected misfolded tau species", "setting": "[1]", "result": "abnormally conformed, misfolded tau species"}, {"measurement": "relative impedance of tau variant expressing cells", "setting": "SH-SY5Y cells", "result": "still more substantial decrease of relative impedance"}, {"measurement": "formation of abnormal tau aggregates", "setting": "[2]", "result": "formation of abnormal tau aggregates"}]}
{"molecule": "C=C1[C@@H](O)[C@@H]2O[C@]3(CC[C@H](/C=C/[C@@H](C)[C@@H]4CC(C)=C[C@@]5(O[C@H](C[C@@](C)(O)C(=O)O)CC[C@H]5O)O4)O3)CC[C@H]2O[C@@H]1[C@@H](O)C[C@H](C)[C@H]1O[C@@]2(CCCCO2)CC[C@H]1C", "note": "[okadaic acid]", "values": [{"measurement": "impedimetric effect of okadaic acid incubation", "setting": "[3]; 3 h and 6 h", "result": "Hyper-tau mutant specific degenerative effect"}, {"measurement": "impedimetric effect of okadaic acid incubation", "setting": "[3]; after 24 h", "result": "massive cell damage in all tau mutants"}]}
{"molecule": "COc1ccc(CNC(=O)Nc2ncc([N+](=O)[O-])s2)cc1", "note": "[AR-A014418]", "values": [{"measurement": "side effects detected by impedimetric monitoring", "setting": "[4]; 6 h and 12 h, 0.1 nM-100 nM", "result": "toxic effects"}, {"measurement": "therapeutic effect on Hyper-tau induced pathology (impedance)", "setting": "[4]; Hyper-tau cells differentiated with 20 nM staurosporine for 48 h, compared to wildtype tau cells", "result": "no therapeutic effect"}, {"measurement": "therapeutic effect in okadaic acid based tau pathology in vitro assays", "setting": "tau hyperphosphorylation", "result": "therapeutic effect"}, {"measurement": "therapeutic effect in tauopathy mouse model", "setting": "tauopathy mouse model", "result": "does not"}]}
{"molecule": "K257Tq: 4× polymutant tauK257T/P301L/V337M/R406W", "values": [{"measurement": "relative impedance of tau variant expressing cells", "setting": "SH-SY5Y cells", "result": "lower impedance values"}]}
{"molecule": "P301L: single mutant tau (P301L)", "values": [{"measurement": "relative impedance of tau variant expressing cells", "setting": "SH-SY5Y cells", "result": "same impedimetric characteristic like the wildtype tau expressing cells"}]}
